Measured values published in PMC7594070, “N-Alkylated Iminosugar Based Ligands: Synthesis and Inhibition of Human Lysosomal β-Glucocerebrosidase” (Molecules, 2020).
Like-named read-outs stand apart in the source and are kept apart here.

Key:
[1] = biological target: T1, β-glucosidase/β-galactosidase from Agrobacterium sp. (Abg, GH1) (Agrobacterium sp., UniProt P12614); test: Ki determination, Agrobacterium sp. β-glucosidase (Abg); type: biochemical; settings: pH 7, substrate pNP β-Gal, room temperature; read-out: Ki Abg (GH1) β-Glc/Gal
T1 sequence (P12614 1-459): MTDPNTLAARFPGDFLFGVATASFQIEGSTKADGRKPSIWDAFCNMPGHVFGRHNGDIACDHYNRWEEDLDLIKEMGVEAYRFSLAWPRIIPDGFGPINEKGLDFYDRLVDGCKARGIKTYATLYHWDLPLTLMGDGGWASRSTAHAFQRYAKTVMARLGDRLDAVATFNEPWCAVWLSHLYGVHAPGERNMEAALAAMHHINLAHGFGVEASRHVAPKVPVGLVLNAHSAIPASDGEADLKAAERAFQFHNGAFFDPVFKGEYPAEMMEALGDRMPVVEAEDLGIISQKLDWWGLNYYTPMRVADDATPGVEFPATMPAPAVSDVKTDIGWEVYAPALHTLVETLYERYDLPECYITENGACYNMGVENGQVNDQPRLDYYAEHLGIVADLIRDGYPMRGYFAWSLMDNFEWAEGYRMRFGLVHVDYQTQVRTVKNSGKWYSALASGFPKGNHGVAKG
Description: (§1) Kinetic studies were performed at room temperature in an appropriate buffer for each enzyme (specific conditions can be found below). All the reactions were performed in half-area 96-well-plates (Corning, Corning, NY, USA) and monitored with a Synergy H1 plate reader (BioTek Instruments, Winooski, VT, USA). In each experiment, the appropriate concentration of the enzyme was incubated with different concentrations of the inhibitors for 2–5 min before initiating the reaction by the addition of substrate. The initial rate was then measured by monitoring the increase in absorbance as a result of the release of 4-nitrophenol at 405 nm for up to five minutes. Ki determinations were performed using two different substrate concentrations. For each substrate concentration, a range of three to six inhibitor concentrations was used. Dixon plots (1/v vs. [I]) were constructed to validate the use of competitive inhibition model and to assess the fit of the data. The data were then fit to a competitive inhibition model using non-linear regression analysis with Grafit 7.0.3 (Erithacus Software, East Grinstead, UK).
Agrobacterium sp. β-glucosidase (Abg): [64, 65] 50 mM sodium phosphate buffer (pH 7).

[2] = biological target: lac Z β-galactosidase from E. coli (GH2) (Escherichia coli, UniProt P00722); test: Ki determination, E. coli lac Z β-galactosidase; type: biochemical; settings: pH 7, substrate pNP β-Gal, room temperature
Description: as §1
E. coli lac z β-galactosidase: 50 mM sodium phosphate, 1.0 mM MgCl2 (pH 7). Substrate: pNP β-Gal, Km = 60 µM.

[3] = biological target: T2, recombinant human lysosomal β-glucocerebrosidase (GCase, GH30) (Homo sapiens, UniProt P04062); test: Ki determination, GCase (β-glucocerebrosidase); type: biochemical
T2 sequence (P04062 40-536): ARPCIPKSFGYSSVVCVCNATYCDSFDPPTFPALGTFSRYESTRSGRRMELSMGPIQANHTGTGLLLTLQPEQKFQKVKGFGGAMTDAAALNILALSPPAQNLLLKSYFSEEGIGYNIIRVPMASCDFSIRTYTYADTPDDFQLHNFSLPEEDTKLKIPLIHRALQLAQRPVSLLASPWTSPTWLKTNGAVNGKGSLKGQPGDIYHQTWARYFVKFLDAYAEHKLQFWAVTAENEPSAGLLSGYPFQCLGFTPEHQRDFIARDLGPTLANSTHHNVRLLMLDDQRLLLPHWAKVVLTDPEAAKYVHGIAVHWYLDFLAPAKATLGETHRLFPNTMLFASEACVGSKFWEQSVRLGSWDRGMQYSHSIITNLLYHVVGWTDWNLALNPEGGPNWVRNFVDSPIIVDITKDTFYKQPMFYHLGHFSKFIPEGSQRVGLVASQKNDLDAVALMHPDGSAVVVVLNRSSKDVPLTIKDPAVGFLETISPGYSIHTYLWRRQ
Description: as §1
GCase (β-glucocerebrosidase): 20 mM sodium citrate, 50 mM sodium phosphate, 1.0 mM tetrasodium EDTA, 0.25% v/v Triton X-100® and 0.25% w/v taurocholic acid buffer (pH 7). Substrate: 2,4-DNP β-Glc, Km = 2.7 mM.

[4] = biological target: α-glucosidase from Saccharomyces cerevisiae (GH13); test: Ki determination, S. cerevisiae α-glucosidase; type: biochemical; settings: pH 7.0, substrate pNP α-Glc, room temperature; read-out: Ki S. cer. (GH13) α-Glc
Description: as §1
S. cerevisiae α-Glucosidase: 50 mM sodium phosphate buffer (pH 7.0). Substrate: pNP α-Glc, Km = 0.75 mM.

[5] = biological target: T3, Fabrazyme = commercial recombinant human lysosomal α-galactosidase (GH27) (Homo sapiens, UniProt P06280); test: Ki determination, Fabrazyme (acid α-galactosidase); type: biochemical; settings: pH 5.5, substrate 2,4-DNP α-Gal, room temperature
T3 construct: purchased Fabrazyme
T3 sequence (P06280 32-429): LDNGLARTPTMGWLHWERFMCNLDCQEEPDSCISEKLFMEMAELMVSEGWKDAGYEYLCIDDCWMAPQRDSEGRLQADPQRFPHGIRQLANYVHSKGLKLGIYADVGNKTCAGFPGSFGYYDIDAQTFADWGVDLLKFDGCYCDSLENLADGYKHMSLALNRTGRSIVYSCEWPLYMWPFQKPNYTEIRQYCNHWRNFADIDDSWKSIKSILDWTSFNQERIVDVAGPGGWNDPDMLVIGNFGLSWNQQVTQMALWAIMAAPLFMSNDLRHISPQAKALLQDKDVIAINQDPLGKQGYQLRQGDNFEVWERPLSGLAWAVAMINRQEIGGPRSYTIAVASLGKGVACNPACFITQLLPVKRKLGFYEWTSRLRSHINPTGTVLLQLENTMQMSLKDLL
Description: as §1, with “The initial rate was then measured by monitoring the increase in absorbance as a result of the release of 4-nitrophenol at 405 nm for up to five minutes.” left out
Fabrazyme (Acid α-galactosidase): 20 mM sodium citrate, 50 mM sodium phosphate, 1.0 mM tetrasodium EDTA, 0.25% v/v Triton X-100® and 0.25% w/v taurocholic acid buffer (pH 5.5).

[6] = biological target: GCase; settings: cited from earlier work
[7] = pH 7, substrate 2,4-DNP β-Glc, room temperature, read-out: Ki GCase (GH30) β-Glc
[8] = values repeated in running text, read-out: Ki for GCase

Sequence of lac Z β-galactosidase from E. coli (GH2) (P00722 2-1024 limits assumed): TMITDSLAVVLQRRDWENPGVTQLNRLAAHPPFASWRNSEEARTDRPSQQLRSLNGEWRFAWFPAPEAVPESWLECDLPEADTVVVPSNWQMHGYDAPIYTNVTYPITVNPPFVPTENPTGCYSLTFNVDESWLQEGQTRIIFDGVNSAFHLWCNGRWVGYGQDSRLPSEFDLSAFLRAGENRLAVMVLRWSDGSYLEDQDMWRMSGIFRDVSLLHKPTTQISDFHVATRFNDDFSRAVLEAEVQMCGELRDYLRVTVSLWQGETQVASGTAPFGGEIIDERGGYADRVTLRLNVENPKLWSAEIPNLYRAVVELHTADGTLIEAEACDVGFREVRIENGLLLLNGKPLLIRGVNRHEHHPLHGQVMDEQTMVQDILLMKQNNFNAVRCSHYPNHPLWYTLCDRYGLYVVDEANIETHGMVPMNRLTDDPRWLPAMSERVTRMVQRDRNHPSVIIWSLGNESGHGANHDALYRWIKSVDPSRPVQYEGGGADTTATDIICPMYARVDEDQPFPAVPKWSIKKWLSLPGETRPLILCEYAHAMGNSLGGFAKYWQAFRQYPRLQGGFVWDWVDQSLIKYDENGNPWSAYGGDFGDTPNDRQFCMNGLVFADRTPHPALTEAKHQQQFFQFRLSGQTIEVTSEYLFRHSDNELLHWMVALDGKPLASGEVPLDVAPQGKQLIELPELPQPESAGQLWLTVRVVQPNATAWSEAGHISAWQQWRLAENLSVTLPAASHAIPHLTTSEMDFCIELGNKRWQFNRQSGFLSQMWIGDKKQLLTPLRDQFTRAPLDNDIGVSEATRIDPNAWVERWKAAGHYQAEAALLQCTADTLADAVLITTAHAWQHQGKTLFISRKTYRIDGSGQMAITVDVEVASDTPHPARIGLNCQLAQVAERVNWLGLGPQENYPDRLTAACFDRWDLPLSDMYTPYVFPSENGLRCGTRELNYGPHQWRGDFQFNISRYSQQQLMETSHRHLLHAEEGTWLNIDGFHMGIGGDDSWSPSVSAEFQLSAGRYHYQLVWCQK

| SMILES | Ki [1] [µM] | Ki [2] [µM] | Ki [3, 7] [µM] | Ki [4] [µM] | Ki [5] [µM] | Ki ([6]; read-out: Ki GCase inhibition, multivalent iminosugars) [µM] | Ki ([6]; read-out: Ki GCase) [µM] | Ki [3, 8] [µM] |
| --- | --- | --- | --- | --- | --- | --- | --- | --- |
| N#CCCCCCOc1ccc(C(=O)OCCCCCCN2C[C@@H](O)[C@H](O)[C@@H](O)C2)cc1 [Compound 46, N-(6-((4-((5-Cyanopentyl)oxy)benzoyl)oxy)hexyl)-1,5-dideoxy-1,5-imino-D-xylitol] | 12.1 | > 1000 | 0.62 | > 1000 | > 1000 | – | – | – |
| [N-]=[N+]=NCCOCCOc1ccc(C(=O)OCCCCCCN2C[C@H](O)[C@@H](O)[C@H](O)[C@H]2CO)cc1 [Compound 47, N-(6-((4-(2-(2-Azidoethoxy)ethoxy)benzoyl)oxy)hexyl)-1,5-dideoxy-1,5-imino-D-glucitol] | 1.7 | > 1000 | 0.09 | 221 | > 1000 | – | – | – |
| N#CCCCCCOc1ccc(C(=O)OCCCCCCN2C[C@H](O)[C@@H](O)[C@H](O)[C@H]2CO)cc1 [Compound 45, N-(6-((4-((5-Cyanopentyl)oxy)benzoyl)oxy)hexyl)-1,5-dideoxy-1,5-imino-D-glucitol] | 1.31 | > 1000 | 0.28 | 23.7 | > 1000 | – | – | – |
| [N-]=[N+]=NCCOCCOc1ccc(C(=O)OCCCCCCN2C[C@@H](O)[C@H](O)[C@@H](O)C2)cc1 [Compound 48, N-(6-((4-(2-(2-Azidoethoxy)ethoxy)benzoyl)oxy)hexyl)-1,5-dideoxy-1,5-imino-D-xylitol] | 32.6 | > 1000 | 1.4 | > 1000 | > 1000 | – | – | – |
| O=C(NCCc1ccc(C(=O)OCCCCCCN2C[C@@H](O)[C@H](O)[C@@H](O)C2)cc1)OCc1ccccc1 [Compound 54, N-(6-((4-(2-(((Benzyloxy)carbonyl)amino)ethyl)benzoyl)oxy)hexyl)-1,5-dideoxy-1,5-imino-D-xylitol] | 0.58 | > 1000 | 0.31 | > 1000 | > 1000 | – | – | – |
| OC[C@@H]1[C@@H](O)[C@H](O)[C@@H](O)CN1CCCCCCCCCn1cc(COCC(COCc2cn(CCCCCCCCCN3C[C@H](O)[C@@H](O)[C@H](O)[C@H]3CO)nn2)(COCc2cn(CCCCCCCCCN3C[C@H](O)[C@@H](O)[C@H](O)[C@H]3CO)nn2)COCc2cn(CCCCCCCCCN3C[C@H](O)[C@@H](O)[C@H](O)[C@H]3CO)nn2)nn1 [Compound 17] | – | – | – | – | – | 0.055 | – | – |
| CC[C@@H]1[C@H](O)[C@@H](O)[C@H](O)CN1CCCCCC(=O)NCCc1c[nH]cn1 [Compound 20] | – | – | – | – | – | – | 4.1 | – |
| O=C(OCCCCCCN1C[C@H](O)[C@@H](O)[C@H](O)[C@H]1CO)c1ccc(OCCOCCOC(C(F)(F)F)(C(F)(F)F)C(F)(F)F)cc1 [Compound 49, N-(6-((4-(2-(2-(Nonafluoro-tert-butyloxy)ethoxy)ethoxy)benzoyl)oxy)hexyl)-1,5-dideoxy-1,5-imino-D-glucitol] | 3.6 | > 1000 | 0.35 | > 1000 | > 1000 | – | – | – |
| C#CCOc1ccc(C(=O)OCCCCCCN2C[C@@H](O)[C@H](O)[C@@H](O)C2)cc1 [Compound 52, N-(6-((4-(Propargyloxy)benzoyl)oxy)hexyl)-1,5-dideoxy-1,5-imino-D-xylitol] | – | > 1000 | 0.74 | 267 | > 1000 | – | – | – |
| C#CCOc1ccc(C(=O)OCCCCCCN2C[C@H](O)[C@@H](O)[C@H](O)[C@H]2CO)cc1 [Compound 51, N-(6-((4-(Propargyloxy)benzoyl)oxy)hexyl)-1,5-dideoxy-1,5-imino-D-glucitol] | 0.0022 | > 1000 | 0.37 | 4.9 | > 1000 | – | – | – |
| CN(C)c1cccc2c(S(=O)(=O)NCCc3ccc(C(=O)OCCCCCCN4C[C@H](O)[C@@H](O)[C@H](O)[C@H]4CO)cc3)cccc12 [Compound 55, N-(6-((4-(2-(Dansylamino)ethyl)benzoyl)oxy)hexyl)-1,5-dideoxy-1,5-imino-D-glucitol] | 0.06 | 89 | – | 8.7 | > 1000 | – | – | 0.018 |
| CC[C@@H]1[C@H](O)[C@@H](O)[C@H](O)CN1CCCCCC(=O)OC [Compound 19] | – | – | – | – | – | – | 57 | – |
| O=C(OCCCCCCN1C[C@@H](O)[C@H](O)[C@@H](O)C1)c1ccc(OCCOCCOC(C(F)(F)F)(C(F)(F)F)C(F)(F)F)cc1 [Compound 50, N-(6-((4-(2-(2-(Nonafluoro-tert-butyloxy)ethoxy)ethoxy)benzoyl)oxy)hexyl)-1,5-dideoxy-1,5-imino-D-xylitol] | 23.7 | 255 | 0.4 | > 1000 | > 1000 | – | – | – |
| CN(C)c1cccc2c(S(=O)(=O)NCCc3ccc(C(=O)OCCCCCCN4C[C@@H](O)[C@H](O)[C@@H](O)C4)cc3)cccc12 [Compound 56, N-(6-((4-(2-(Dansylamino)ethyl)benzoyl)oxy)hexyl)-1,5-dideoxy-1,5-imino-D-xylitol] | 0.76 | 198 | – | > 1000 | > 1000 | – | – | – |
| O=C(NCCc1ccc(C(=O)OCCCCCCN2C[C@H](O)[C@@H](O)[C@H](O)[C@H]2CO)cc1)OCc1ccccc1 [Compound 53, N-(6-((4-(2-(((Benzyloxy)carbonyl)amino)ethyl)benzoyl)oxy)hexyl)-1,5-dideoxy-1,5-imino-D-glucitol] | 0.06 | 424 | – | 8.1 | > 1000 | – | – | 0.022 |
